Laboratory results reported in the supplement of paper PMC11451515.

Key:
Assay in all cases: AUC of viability dose-response curve (% viability x log10 dose units); higher = less sensitive
Conditions in all cases: 48 h
SEM cells = test system: SEM cells
In short: (§1)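 Leukemia cells adapted to each medium were seeded in 1536-well plates (500 or 1000 cells/well) and given library compounds in DMSO for 48 h at 37°C. The 11 threefold doses spanned 47 μM to 0.79 nM, and CellTiter-Glo One luminescence was normalised per plate to DMSO and cell-free wells before four-parameter log-logistic fitting on log10 dose. Area under the curve was integrated with the trapezoidal rule, scaling curves above full viability and removing curves that failed quality control.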

NOMO1 = test system: NOMO1
In short: as §1

P12-Ichikawa = test system: P12-Ichikawa
In short: as §1

[1] = RPMI 5 mM glucose + 10% dialyzed FBS

Compound | AUC of viability dose-response curve (SEM cells; HPLM + 10% dialyzed FBS) | AUC of viability dose-response curve (SEM cells; RPMI 5 mM glucose + 10% FBS) | AUC of viability dose-response curve (SEM cells; [1]) | AUC of viability dose-response curve (NOMO1; HPLM + 10% dialyzed FBS) | AUC of viability dose-response curve (NOMO1; RPMI 5 mM glucose + 10% FBS) | AUC of viability dose-response curve (NOMO1; [1]) | AUC of viability dose-response curve (P12-Ichikawa; HPLM + 10% dialyzed FBS) | AUC of viability dose-response curve (P12-Ichikawa; RPMI 5 mM glucose + 10% FBS) | AUC of viability dose-response curve (P12-Ichikawa; [1])
COc1cc2c(cc1OC)CC(=O)N(CCCN(C)C[C@H]1Cc3cc(OC)c(OC)cc31)CC2.Cl | 464 | 465 | 469 | 466 | 463 | 440 | 475 | 477 | 459
Cc1cccc(Nc2nc(-c3ccncc3)cs2)c1 | 466 | 464 | 454 | 442 | 466 | 473 | 470 | 469 | 465
CC(C)CC(=O)N[C@H](C(=O)N[C@H](C(=O)N[C@@H](CC(C)C)[C@@H](O)CC(=O)N[C@@H](C)C(=O)N[C@@H](CC(C)C)[C@@H](O)CC(=O)O)C(C)C)C(C)C | 443 | 435 | 437 | 450 | 445 | 467 | 471 | 476 | 477
C[C@@H]\1CC(=O)N\N=C1C2=CC=C(NN=C(C#N)C#N)C=C2 | 397 | 368 | 393 | 426 | 410 | 413 | 424 | 417 | 392
CNC(=O)c1ccc(N2C(=S)N(c3ccc(C#N)c(C(F)(F)F)c3)C(=O)C23CCC3)cc1F | 425 | 408 | 411 | – | – | – | – | – | –
C[N]1C=C(C2=C1C=CC=C2)\C3=C(\C(=O)NC3=O)C4=C5CC(CN)CC[N]5C6=C4C=CC=C6 (centres undefined) | 395 | 399 | 420 | 452 | 443 | 460 | 456 | 440 | 443
Cc1cc(C(C)(C)C)c(O)c(C)c1CC1=NCCN1 | 360 | 392 | 400 | 432 | 419 | 422 | 454 | 444 | 429
CCN1\C=C(\C(O)=O)C(=O)C2=CC=C(C)N=C12 | 397 | 425 | 410 | – | – | – | 466 | 426 | 427
NC(=O)c1ccc(I)c([N+](=O)[O-])c1 | 473 | 470 | 467 | 468 | 475 | 464 | 461 | 457 | 468
OC[C@H]1OCC(O1)[N@@]2C=CC(N)=NC2=O (some centres undefined) | – | – | – | 465 | 463 | 475 | 458 | 458 | 446
CSCC[C@@H](NC(=O)[C@@H](Cc1ccccc1)NC(=O)CNC(=O)CNC(=O)[C@@H](N)Cc1ccc(O)cc1)C(=O)O | 406 | 389 | 409 | – | – | – | – | – | –
CN(NC(=O)CC(=O)NN(C)C(=S)c1ccccc1)C(=S)c1ccccc1 | – | – | – | 207 | 197 | 178 | 216 | 204 | 217
N[C@H](CSC(c1ccccc1)(c1ccccc1)c1ccccc1)C(=O)O | – | – | – | 470 | 466 | 465 | 472 | 437 | 470
CC(C)C(=O)Oc1ccc(CO)cc1[C@H](CCN(C(C)C)C(C)C)c1ccccc1 | 376 | 402 | 433 | – | – | – | 405 | 398 | 381
